Source: patent US20200077648A1, “PHENOXYPHENYLAMIDINES AND THE USE THEREOF AS FUNGICIDES” (priority 2016, published 2020)

How the values were obtained:
[1] = Log P measurement by HPLC on reversed phase columns (EEC directive 79/831 Annex V.A8; methods [a], [b], [c]); format: physicochemical
Procedure: If more than one Log P value is available within the same method, all the values are given and separated by “+”. […] Lambda-max-values were determined using UV-spectra from 200 nm to 400 nm and the peak values of the chromatographic signals.

soy bean plants = assay: Plant compatibility test using soy bean plants; format: in vivo; settings: soy bean young plants sprayed, rate of application of active compound 500 ppm, evaluated 6 days after application; 0% = no damages, 100% = plants totally damaged
Procedure: Plant Compatibility Test Using Soy Bean Plants
Solvent: 24.5 parts by weight of acetone • 24.5 parts by weight of dimethylacetamide Emulsifier: 1 part by weight of alkylaryl polyglycol ether
To produce a suitable preparation of active compound, 1 part by weight of active compound is mixed with the stated amounts of solvent and emulsifier, and the concentrate is diluted with water to the desired concentration. Young plants are sprayed with the preparation of active compound at the stated application rate. The plants are then placed in a greenhouse at approximately 21° C. and a relative atmospheric humidity of approximately 80%. The test is evaluated 6 days after application and comprises plant damages like leaf deformation, chlorosis, necrosis, shoot damage or stunting. 0% means no damages are observed, while 100% means that the plants are totally damaged.

[2] = method [a]: LC-UV, acidic range, 0.1% formic acid in water and acetonitrile as eluent
[3] = method [a]: LC-UV, acidic range, 0.1% formic acid in water and acetonitrile as eluent (linear gradient 10% to 95% acetonitrile)
[4] = method [b]: LC-UV, neutral range, 0.001 molar ammonium acetate solution in water and acetonitrile as eluent

Compound	LogP [1, 3]	LogP [1, 2]	other results
CCN(C)C=Nc1cc(F)c(Oc2ccccc2F)cc1C [Example 65]	–	1.34^[a]	Necrosis in % (soy bean plants): 20%
CCN(C)C=Nc1cc(Br)c(Oc2ccccc2F)cc1C [Example 42]	–	1.55^[a]	Necrosis in % (soy bean plants): 20%
CCN(C)C=Nc1cc(Cl)c(Oc2ccc(F)cc2)cc1C [Example 8]	–	1.55^[a]	Necrosis in % (soy bean plants): 0%
CCN(C)C=Nc1cc(C)c(Oc2ccccc2C(F)(F)F)cc1C [Example 114]	1.69^[a]	–	Necrosis in % (soy bean plants): 5%
CCN(C)C=Nc1cc(Br)c(Oc2ccccc2)cc1C [Example 36]	–	1.58^[a];	LogP [1, 4]: 4.79^[b]; Necrosis in % (soy bean plants): 40%
CCN(C)C=Nc1cc(C2CC2)c(Oc2ccccc2F)cc1C [Example 120]	1.60^[a]	–	Necrosis in % (soy bean plants): 0%
Cc1cc(Oc2ccccc2F)c(C)cc1N=CN(C)C(C)C [Example 67]	–	1.68^[a]	Necrosis in % (soy bean plants): 40%
CCN(C)C=Nc1cc(C)c(Oc2cccc(F)c2)cc1Cl [Example 5]	–	1.58^[a]	Necrosis in % (soy bean plants): 10%
CCN(C)C=Nc1cc(C)c(Oc2cc(F)ccc2C#N)cc1Cl [Example 93]	1.27^[a]	–	Necrosis in % (soy bean plants): 10%
CCN(C)C=Nc1cc(C)c(Oc2ccccc2Cl)cc1C [Example 16]	–	1.86^[a]	Necrosis in % (soy bean plants): 30%
CCN(C)C=Nc1cc(C)c(Oc2cccc(C)c2F)cc1C [Example 20]	–	1.69^[a]	Necrosis in % (soy bean plants): 80%
CCN(C)C=Nc1cc(C)c(Oc2ccccc2S(C)(=O)=O)cc1Cl [Example 75]	0.91^[a]	–	–
CCN(C)C=Nc1cc(C)c(Oc2cccc(F)c2C#N)cc1Cl [Example 88]	1.35^[a]	–	Necrosis in % (soy bean plants): 20%
CCN(C)C=Nc1cc(C)c(Oc2ccccc2Br)cc1Cl [Example 29]	–	1.80^[a];	LogP [1, 4]: 4.93^[b]
CCN(C)C=Nc1cc(C(F)(F)F)c(Oc2ccccc2C#N)cc1C [Example 21]	–	1.46^[a]	Necrosis in % (soy bean plants): 20%
CCN(C)C=Nc1cc(Cl)c(Oc2ccccc2C#N)cc1C [Example 18]	–	1.21^[a]	–
CCN(C)C=Nc1cc(I)c(Oc2ccccc2F)cc1C [Example 55]	–	1.58^[a]	Necrosis in % (soy bean plants): 10%
CCc1ccccc1Oc1cc(C)c(N=CN(C)CC)cc1C [Example 10]	–	2.06^[a]	–
CCN(C)C=Nc1cc(C(F)F)c(Oc2ccccc2F)cc1C [Example 54]	–	1.49^[a]	–
Cc1cc(Oc2ccc(F)cc2)c(C)cc1N=CN(C)C(C)C [Example 4]	–	1.66^[a];	LogP [1, 4]: 5.63^[b]

Compound	LogP [1, 3]	LogP [1, 2]	other results
CCN(C)C=Nc1cc(Br)c(Oc2ccccc2C)cc1C [Example 43]	–	1.72^[a]	–
C#Cc1cc(Oc2ccccc2)c(C)cc1N=CN(C)CC [Example 111]	1.44^[a]	–	–
Cc1cc(N=CN(C)C(C)C)c(Cl)cc1Oc1ccccc1F [Example 7]	–	1.80^[a]	Necrosis in % (soy bean plants): 10%
CCN(C)C=Nc1cc(C(C)C)c(Oc2ccccc2C#N)cc1C [Example 107]	1.75^[a]	–	Necrosis in % (soy bean plants): 0%
CCN(C)C=Nc1cc(C)c(Oc2ccccc2C#N)cc1Cl [Example 17]	–	1.21^[a]	–
CCN(C)C=Nc1cc(C)c(Oc2cccc(F)c2C#N)cc1C [Example 80]	1.32^[a]	–	–
CCN(C)C=Nc1cc(C(F)F)c(Oc2ccccc2C#N)cc1C [Example 102]	1.18^[a]	–	Necrosis in % (soy bean plants): 0%
CCN(C)C=Nc1cc(C)c(Oc2ccccc2N(C)C)cc1Cl [Example 76]	0.78^[a]	–	–
CCN(C)C=Nc1cc(C)c(Oc2cccc(F)c2F)cc1C [Example 19]	–	1.49^[a]	Necrosis in % (soy bean plants): 60%
CCN(C)C=Nc1cc(C(F)(F)F)c(Oc2ccccc2C)cc1C [Example 33]	–	1.96^[a]	–
CCN(C)C=Nc1cc(C)c(Oc2cccc(Cl)c2F)cc1C [Example 53]	–	1.89^[a]	–
Cc1cc(Oc2ccccc2F)c(C)cc1N=CN(C)C [Example 66]	–	1.43^[a]	–
CCN(C)C=Nc1cc(OC)c(Oc2ccccc2)cc1C [Example 31]	–	1.42^[a];	LogP [1, 4]: 3.93^[b]; Necrosis in % (soy bean plants): 30%
CCN(C)C=Nc1cc(I)c(Oc2ccccc2C)cc1C [Example 59]	–	1.78^[a]	–
CCN(C)C=Nc1cc(C)c(Oc2cccc(Cl)c2F)cc1Cl [Example 3]	–	1.88^[a]	–
C=C(C)c1cc(N=CN(C)CC)c(C)cc1Oc1ccccc1C#N [Example 109]	1.60^[a]	–	–
CCN(C)C=Nc1cc(C)c(Oc2ccccc2F)cc1OC [Example 14]	–	1.46^[a];	LogP [1, 4]: 4.33^[b]
CCN(C)C=Nc1cc(C)c(Oc2cccc(F)c2)cc1C [Example 2]	–	1.50^[a]	Necrosis in % (soy bean plants): 80%
CCN(C)C=Nc1cc(C)c(Oc2cccc(Cl)c2)cc1Cl [Example 49]	–	1.84^[a]	–
CCN(C)C=Nc1cc(C)c(Oc2ccccc2)cc1C#N [Example 72]	1.53^[a]	–	–

Compound	LogP [1, 3]	LogP [1, 2]	other results
Cc1cc(Oc2ccccc2C#N)c(I)cc1N=CN(C)C(C)C [Example 426]	1.41^[a]	–	–
CCN(C)C=Nc1cc(C)c(Oc2ccccc2)cc1C(F)(F)F [Example 22]	–	1.89^[a]	–
CCN(C)C=Nc1cc(C)c(Oc2ccccc2I)cc1C(F)(F)F [Example 26]	–	2.28^[a]	–
CCN(C)C=Nc1cc(C)c(Oc2ccccc2Br)cc1C(F)(F)F [Example 25]	–	2.17^[a]	–
CCc1cc(Oc2ccccc2)c(Br)cc1N=CN(C)C [Example 35]	–	1.37^[a];	LogP [1, 4]: 4.29^[b]
Cc1cc(N=CN(C)C(C)C)c(Cl)cc1Oc1ccccc1F [Example 62]	–	1.61^[a]	–
CCN(C)C=Nc1cc(C)c(Oc2ccccc2[S+](C)[O-])cc1C (stereo not drawn) [Example 116]	0.94^[a]	–	–
CCN(C)C=Nc1cc(C2CC2)c(Oc2ccccc2C#N)cc1C [Example 119]	1.38^[a]	–	–
CCN(C)C=Nc1cc(C)c(Oc2ccccc2Br)cc1C(F)F [Example 40]	–	1.94^[a]	–
CCN(C)C=Nc1cc(C)c(Oc2ccccc2C(=O)N(C)C)cc1Cl [Example 91]	0.97^[a]	–	–
CCN(C)C=Nc1cc(C2CC2)c(Oc2ccccc2F)cc1C [Example 52]	–	1.75^[a]	–
CCN(C)C=Nc1cc(I)c(Oc2ccccc2Br)cc1C [Example 57]	–	1.75^[a]	–
CCN(C)C=Nc1cc(C)c(Oc2ccccc2C2CC2)cc1C [Example 11]	–	2.09^[a]	–
Cc1cc(N=CN(C)C)c(Br)cc1Oc1ccccc1F [Example 61]	–	1.39^[a]	–
CCN(C)C=Nc1cc(Br)c(Oc2ccccc2Cl)cc1C [Example 45]	–	1.79^[a]	–
CCN(C)C=Nc1cc(C)c(Oc2ccccc2)cc1C1CC1 [Example 51]	–	1.75^[a]	–
CCN(C)C=Nc1cc(I)c(Oc2ccccc2Cl)cc1C [Example 58]	–	1.72^[a]	–
Cc1cc(N=CN(C)C)c(Cl)cc1Oc1ccccc1F [Example 60]	–	1.37^[a]	–
CCN(C)C=Nc1cc(Br)c(Oc2ccccc2Br)cc1C [Example 46]	–	1.84^[a]	–
C=C(C)c1cc(Oc2ccccc2)c(C)cc1N=CN(C)CC [Example 96]	1.63^[a]	–	–

The next lines start with results.

LogP [1, 3]	Compound	LogP [1, 2]	other results
1.46^[a]	CCN(C)C=Nc1cc(C(F)F)c(Oc2ccccc2F)cc1C [Example 105]	–	Necrosis in % (soy bean plants): 0%
1.69^[a]	CCc1cc(N=CN(C)CC)c(C)cc1Oc1ccccc1F [Example 106]	–	Necrosis in % (soy bean plants): 30%
0.55^[a]	CCN(C)C=Nc1cc(C)c(Oc2ccccc2N(C)C)cc1C [Example 85]	–	–
1.55^[a]	CCN(C)C=Nc1cc(C)c(Oc2ccccc2C(F)F)cc1Cl [Example 78]	–	–
1.83^[a]	CCN(C)C=Nc1cc(C)c(Oc2ccccc2F)cc1C1CC1 [Example 110]	–	–
1.60^[a]	C=C(C)c1cc(N=CN(C)CC)c(C)cc1Oc1ccccc1F [Example 118]	–	Necrosis in % (soy bean plants): 5%
1.02^[a]	CCN(C)C=Nc1cc(C)c(Oc2ccccc2[S+](C)[O-])cc1Br (stereo not drawn) [Example 101]	–	–
1.97^[a]	Cc1cc(Oc2ccccc2Br)c(C)cc1N=CN(C)C(C)C [Example 69]	–	–
1.58^[a]	CCN(C)C=Nc1cc(C)c(Oc2cccc(F)c2C#N)cc1Br [Example 104]	–	–
1.24^[a]	CCN(C)C=Nc1cc(C)c(Oc2ccccc2F)cc1C(=O)N(C)C [Example 117]	–	–
1.72^[a]	CCN(C)C=Nc1cc(C)c(Oc2cccc(F)c2C)cc1C [Example 86]	–	–
1.55^[a]	CCN(C)C=Nc1cc(C)c(Oc2ccccc2SC)cc1C [Example 115]	–	–
0.94^[a]	CCN(C)C=Nc1cc(C)c(Oc2ccccc2S(C)(=O)=O)cc1Br [Example 123]	–	–
1.25^[a]	Cc1cc(Oc2ccccc2C#N)c(C)cc1N=CN(C)C [Example 70]	–	–
1.44^[a]	C#Cc1cc(Oc2ccccc2F)c(C)cc1N=CN(C)CC [Example 112]	–	–
2.03^[a]	CCN(C)C=Nc1cc(C)c(Oc2ccccc2I)cc1Br [Example 99]	–	–
1.75^[a]	CCN(C)C=Nc1cc(C(C)C)c(Oc2ccccc2F)cc1C [Example 121]	–	–
1.27^[a]	CCN(C)C=Nc1cc(C)c(Oc2ccccc2C#N)cc1Br [Example 92]	–	–
1.66^[a]	CCN(C)C=Nc1cc(C)c(Oc2cccc(F)c2Br)cc1Cl [Example 79]	–	–
